Reference: ChEMBL document CHEMBL5316342, “Structure-Based Design of Potent Iminosugar Inhibitors of Endoplasmic Reticulum α-Glucosidase I with Anti-SARS-CoV-2 Activity” (J Med Chem, 2023)
The source made the active and inactive calls. The calls are words filed in the database; no cut-off is given here.

test system: not listed separately; assay: Inhibition of C-terminal his6-tagged full length recombinant mouse Endoplasmic reticulum alpha-glucosidase 1 (59 to 834 residues) expressed in FreeStyle 293-F cells using trisaccharide as substrate preincubated for 60 mins followed by substrate addition and measured for 90 mins by Amplex Red assay; conditions: not given

`CS(=O)(=O)c1cc(Br)cc(NCc2cccc(CN3C[C@H](O)[C@@H](O)[C@H](O)[C@H]3CO)c2)c1` and `CS(=O)(=O)c1cc(NCc2ccc(CN3C[C@H](O)[C@@H](O)[C@H](O)[C@H]3CO)cc2)cc(-c2cccnn2)c1` are within 1.5-fold of each other in IC50: 19 nM for the first, 21 nM for the second.

`Cc1nc2cc(-c3ncccn3)ccc2n1CCCCCCN1C[C@H](O)[C@@H](O)[C@H](O)[C@H]1CO` and `Cc1nc(-c2ccc(NCCCCCCN3C[C@H](O)[C@@H](O)[C@H](O)[C@H]3CO)c([N+](=O)[O-])c2)no1` are within 1.5-fold of each other in IC50: 78 nM for the first, 99 nM for the second.

`OC[C@@H]1[C@@H](O)[C@H](O)[C@@H](O)CN1Cc1ccc(CNc2ccc(N3CCOCC3)cc2)cc1` and `O=[N+]([O-])c1cc(N2CCOCC2)ccc1NCc1cccc(CN2C[C@H](O)[C@@H](O)[C@H](O)[C@H]2CO)c1` are within 1.5-fold of each other in IC50: 122 nM for the first, 99 nM for the second.

First: O=[N+]([O-])c1cc(N2[C@@H]3CC[C@H]2COC3)ccc1NCc1ccc(CN2C[C@H](O)[C@@H](O)[C@H](O)[C@H]2CO)cc1
Second: O=[N+]([O-])c1cc(N2C3CCC2COC3)ccc1NCCCCCCN1C[C@H](O)[C@@H](O)[C@H](O)[C@H]1CO
The IC50 of the first is lower: less than 1 nM for the first, 52 nM for the second. The first is the more potent here.

First: N#Cc1cc(NCc2cccc(CN3C[C@H](O)[C@@H](O)[C@H](O)[C@H]3CO)c2)cc(C2=COCCO2)c1
Second: OC[C@@H]1[C@@H](O)[C@H](O)[C@@H](O)CN1CCc1ccc(CCNc2cc(O)cc(-c3cccnn3)c2)cc1
The IC50 of the first is 70-fold lower: 3 nM for the first, 211 nM for the second. The first is the more potent here.

First: [N-]=[N+]=Nc1ccc(NCCOC(=O)NCCN[C@H]2C[C@](O)(CO)[C@@H](O)[C@H](O)[C@H]2O)c([N+](=O)[O-])c1
Second: O=[N+]([O-])c1cc(-c2ccnc(N3CCOCC3)n2)ccc1NCCCCCCN1C[C@H](O)[C@@H](O)[C@H](O)[C@H]1CO
The IC50 of the first is higher: 1130 nM for the first, less than 1 nM for the second.

Going from `O=[N+]([O-])c1cc(NCCCCCCN2C[C@H](O)[C@@H](O)[C@H](O)[C@H]2CO)cc(-c2ccncc2)c1` to `COCCc1ccc(CCCCCN2C[C@H](O)[C@@H](O)[C@H](O)[C@H]2CO)cc1`, the IC50 rises from 1 nM to 1160 nM (1200-fold).

biological target: not listed separately; assay: Inhibition of mouse recombinant alpha-glucosidase using 4-methylumbelliferyl-[…]-D-glucopyranoside as substrate preincubated for 60 mins followed by substrate addition and measured after 30 mins by fluorescence based analysis; conditions: not given

First: CS(=O)(=O)c1cc(Br)cc(NCc2cccc(CN3C[C@H](O)[C@@H](O)[C@H](O)[C@H]3CO)c2)c1
Second: CS(=O)(=O)c1cc(NCc2ccc(CN3C[C@H](O)[C@@H](O)[C@H](O)[C@H]3CO)cc2)cc(-c2cccnn2)c1
The IC50 of the first is 69-fold higher: 7920 nM for the first, 114 nM for the second. The second is the more potent here.

Compared with `Cc1nc2cc(-c3ncccn3)ccc2n1CCCCCCN1C[C@H](O)[C@@H](O)[C@H](O)[C@H]1CO`, `Cc1nc(-c2ccc(NCCCCCCN3C[C@H](O)[C@@H](O)[C@H](O)[C@H]3CO)c([N+](=O)[O-])c2)no1` is 65-fold lower in IC50: 194 nM for the first, 3 nM for the second. The second is the more potent here.

First: OC[C@@H]1[C@@H](O)[C@H](O)[C@@H](O)CN1Cc1ccc(CNc2ccc(N3CCOCC3)cc2)cc1
Second: O=[N+]([O-])c1cc(N2CCOCC2)ccc1NCc1cccc(CN2C[C@H](O)[C@@H](O)[C@H](O)[C@H]2CO)c1
The IC50 of the first is 8.1-fold lower: 1580 nM for the first, 12800 nM for the second.

Compared with `O=[N+]([O-])c1cc(N2[C@@H]3CC[C@H]2COC3)ccc1NCc1ccc(CN2C[C@H](O)[C@@H](O)[C@H](O)[C@H]2CO)cc1`, `O=[N+]([O-])c1cc(N2C3CCC2COC3)ccc1NCCCCCCN1C[C@H](O)[C@@H](O)[C@H](O)[C@H]1CO` is higher in IC50: less than 1 nM for the first, 30 nM for the second. The first is the more potent here.

Compared with `N#Cc1cc(NCc2cccc(CN3C[C@H](O)[C@@H](O)[C@H](O)[C@H]3CO)c2)cc(C2=COCCO2)c1`, `OC[C@@H]1[C@@H](O)[C@H](O)[C@@H](O)CN1CCc1ccc(CCNc2cc(O)cc(-c3cccnn3)c2)cc1` is lower in IC50: 2670 nM for the first, less than 1 nM for the second.

`O=[N+]([O-])c1cc(-c2ccnc(N3CCOCC3)n2)ccc1NCCCCCCN1C[C@H](O)[C@@H](O)[C@H](O)[C@H]1CO` and `O=[N+]([O-])c1cc(NCCCCCCN2C[C@H](O)[C@@H](O)[C@H](O)[C@H]2CO)cc(-c2ccncc2)c1` cannot be ordered by IC50: less than 1 nM for the first, less than 1 nM for the second.

`COCCc1ccc(CCCCCN2C[C@H](O)[C@@H](O)[C@H](O)[C@H]2CO)cc1` showed an IC50 of 76 nM.

test system: not listed separately; assay: Cytotoxicity against human A549-ACE2 cells infected with SARS-CoV-2 USA-WA1/2020 assessed as reduction in cell viability at 25 uM measured for 3 days by WST-1 assay relative to control; assay type: toxicity, cell-based; conditions: a549-ace2, 72 h, time 3 day

`COCCCCCCCCCN1C[C@H](O)[C@@H](O)[C@H](O)[C@H]1CO.Cl` and `Cc1nc(-c2ccc(NCCCCCCN3C[C@H](O)[C@@H](O)[C@H](O)[C@H]3CO)c([N+](=O)[O-])c2)no1` are the same in Activity: 100% for the first, 100% for the second.

Going from `CS(=O)(=O)c1cc(Br)cc(NCc2cccc(CN3C[C@H](O)[C@@H](O)[C@H](O)[C@H]3CO)c2)c1` to `CS(=O)(=O)c1cc(NCc2ccc(CN3C[C@H](O)[C@@H](O)[C@H](O)[C@H]3CO)cc2)cc(-c2cccnn2)c1`, the Activity falls from 100% to 99.2%.

Going from `O=[N+]([O-])c1cc(-n2cccn2)ccc1NCCCCCCN[C@H]1C[C@](O)(CO)[C@@H](O)[C@H](O)[C@H]1O` to `O=[N+]([O-])c1cc(N2C3CCC2COC3)ccc1NCCCCCCN1C[C@H](O)[C@@H](O)[C@H](O)[C@H]1CO`, the Activity rises from 85.6% to 98.9%.

Going from `Cc1nc2cc(-c3ncccn3)ccc2n1CCCCCCN1C[C@H](O)[C@@H](O)[C@H](O)[C@H]1CO` to `O=[N+]([O-])c1cc(NCCCCCCN2C[C@H](O)[C@@H](O)[C@H](O)[C@H]2CO)cc(-c2ccncc2)c1`, the Activity rises from 80.8% to 87.2%.

Going from `OC[C@@H]1[C@@H](O)[C@H](O)[C@@H](O)CN1Cc1ccc(CNc2ccc(N3CCOCC3)cc2)cc1` to `O=[N+]([O-])c1cc(N2CCOCC2)ccc1NCc1cccc(CN2C[C@H](O)[C@@H](O)[C@H](O)[C@H]2CO)c1`, the Activity falls from 97.6% to 36.5%.

Compared with `O=[N+]([O-])c1cc(N2[C@@H]3CC[C@H]2COC3)ccc1NCc1ccc(CN2C[C@H](O)[C@@H](O)[C@H](O)[C@H]2CO)cc1`, `O=[N+]([O-])c1cc(-c2ccnc(N3CCOCC3)n2)ccc1NCCCCCCN1C[C@H](O)[C@@H](O)[C@H](O)[C@H]1CO` is lower in Activity: 75% for the first, 58.6% for the second.

Going from `N#Cc1cc(NCc2cccc(CN3C[C@H](O)[C@@H](O)[C@H](O)[C@H]3CO)c2)cc(C2=COCCO2)c1` to `OC[C@@H]1[C@@H](O)[C@H](O)[C@@H](O)CN1CCc1ccc(CCNc2cc(O)cc(-c3cccnn3)c2)cc1`, the Activity falls from 100% to 93.5%.

test system: not listed separately; assay: Cytotoxicity against human A549-ACE2 cells infected with SARS-CoV-2 USA-WA1/2020 assessed as reduction in cell viability measured for 3 days by WST-1 assay; assay type: toxicity, cell-based; conditions: a549-ace2, 72 h, time 3 day

`COCCCCCCCCCN1C[C@H](O)[C@@H](O)[C@H](O)[C@H]1CO.Cl` and `Cc1nc(-c2ccc(NCCCCCCN3C[C@H](O)[C@@H](O)[C@H](O)[C@H]3CO)c([N+](=O)[O-])c2)no1` cannot be ordered by CC50: greater than 100000 nM for the first, greater than 100000 nM for the second.

`CS(=O)(=O)c1cc(Br)cc(NCc2cccc(CN3C[C@H](O)[C@@H](O)[C@H](O)[C@H]3CO)c2)c1` and `CS(=O)(=O)c1cc(NCc2ccc(CN3C[C@H](O)[C@@H](O)[C@H](O)[C@H]3CO)cc2)cc(-c2cccnn2)c1` cannot be ordered by CC50: greater than 100000 nM for the first, greater than 100000 nM for the second.

`O=[N+]([O-])c1cc(-n2cccn2)ccc1NCCCCCCN[C@H]1C[C@](O)(CO)[C@@H](O)[C@H](O)[C@H]1O` and `O=[N+]([O-])c1cc(N2C3CCC2COC3)ccc1NCCCCCCN1C[C@H](O)[C@@H](O)[C@H](O)[C@H]1CO` cannot be ordered by CC50: greater than 100000 nM for the first, greater than 100000 nM for the second.

First: Cc1nc2cc(-c3ncccn3)ccc2n1CCCCCCN1C[C@H](O)[C@@H](O)[C@H](O)[C@H]1CO
Second: O=[N+]([O-])c1cc(NCCCCCCN2C[C@H](O)[C@@H](O)[C@H](O)[C@H]2CO)cc(-c2ccncc2)c1
The CC50 of the first is higher: greater than 100000 nM for the first, 54200 nM for the second.

Going from `OC[C@@H]1[C@@H](O)[C@H](O)[C@@H](O)CN1Cc1ccc(CNc2ccc(N3CCOCC3)cc2)cc1` to `O=[N+]([O-])c1cc(N2[C@@H]3CC[C@H]2COC3)ccc1NCc1ccc(CN2C[C@H](O)[C@@H](O)[C@H](O)[C@H]2CO)cc1`, the CC50 falls from greater than 100000 nM to 39800 nM.

`N#Cc1cc(NCc2cccc(CN3C[C@H](O)[C@@H](O)[C@H](O)[C@H]3CO)c2)cc(C2=COCCO2)c1` and `OC[C@@H]1[C@@H](O)[C@H](O)[C@@H](O)CN1CCc1ccc(CCNc2cc(O)cc(-c3cccnn3)c2)cc1` cannot be ordered by CC50: greater than 100000 nM for the first, greater than 100000 nM for the second.

test system: SARS-CoV-2; assay: Antiviral activity against SARS-CoV-2 USA-WA1/2020 infected in human A549-ACE2 cells assessed as reduction in viral burden measured upto 4 days by viral plaque assay; assay type: functional, organism-based; conditions: Severe acute respiratory syndrome coronavirus 2, USA-WA1/2020, A549-ACE2, 96 h

First: COCCCCCCCCCN1C[C@H](O)[C@@H](O)[C@H](O)[C@H]1CO.Cl
Second: Cc1nc(-c2ccc(NCCCCCCN3C[C@H](O)[C@@H](O)[C@H](O)[C@H]3CO)c([N+](=O)[O-])c2)no1
The EC50 of the first is 7.5-fold higher: 3320 nM for the first, 440 nM for the second. The second is the more potent here.

First: Cc1nc2cc(-c3ncccn3)ccc2n1CCCCCCN1C[C@H](O)[C@@H](O)[C@H](O)[C@H]1CO
Second: O=[N+]([O-])c1cc(N2C3CCC2COC3)ccc1NCCCCCCN1C[C@H](O)[C@@H](O)[C@H](O)[C@H]1CO
The EC50 of the first is 7.6-fold higher: 12200 nM for the first, 1610 nM for the second. The second is the more potent here.

test system: SARS-CoV-2; assay: Antiviral activity against SARS-CoV-2 USA-WA1/2020 infected in human A549-ACE2 cells assessed as maximum reduction in viral burden up to 100 uM measured upto 4 days by viral plaque assay; assay type: functional; conditions: Severe acute respiratory syndrome coronavirus 2, time <= 4.0 day

With `O=[N+]([O-])c1cc(N2CCOCC2)ccc1NCc1cccc(CN2C[C@H](O)[C@@H](O)[C@H](O)[C@H]2CO)c1` the Activity was “inactive”.
In the case of `O=[N+]([O-])c1cc(-c2ccnc(N3CCOCC3)n2)ccc1NCCCCCCN1C[C@H](O)[C@@H](O)[C@H](O)[C@H]1CO`, the Activity is reported as “inactive”.
